The record followed here is patent US11261175B2 (priority 2017, dated 2022).

pEC50: −log10 of the molar value. A value given as a limit tells only on which side of the number the result lay.

Assay type in all cases: cell-based
Experiment [1] deals with HCV replicon NK5.1-Gluc (genotype 1b). The experiment is described as follows: Anti-HCV activity using HCV replicon NK5.1-Gluc (genotype 1b) in Huh 7.5.1 cells, luciferase readout. Conditions: Hepatitis C virus, 72 h; Huh 7.5.1 cells with NK5.1-Gluc replicon, 3 days, Gaussia luciferase; read-out: HCV wt. GT-1b.
Experiment [2] relates to HCV replicon S52-Feo (genotype 3a). The experiment is described as follows: Anti-HCV activity using HCV replicon S52-Feo (genotype 3a) in Huh 7.5.1 cells, luciferase readout. Conditions: Hepatitis C virus, 72 h; Huh 7.5.1 cells with S52-Feo replicon, 3 days, firefly luciferase; read-out: HCV wt. GT-3a. A general note: In antiviral work, replicon cells carry a viral genome segment that copies itself.

The subject of experiment [3] is HCV genotype 1b replicon with NS5A L31V+Y93H (double mutant). The experiment is described as follows: Transiently transfected assay of genotype 1b resistance mutant RNA L31V+Y93H (double mutant). Conditions: Hepatitis C virus, Huh-7.5.1, 72 h, read-out: HCV Mutation L31V + Y93H. From the text: (§1) <Experimental Example 3> Transiently Transfected Assay of Genotype 1b Resistance Mutant RNAs
(§2) Replicon genomes substituted with Y93H, L31V and L31V+Y93H (double mutant), the resistance mutants to Daclatasvir with mutations at the NS5A protein domain 1.
(§3) These HCV resistance mutant genomes were linearized with scal restriction enzyme, and then the mutated HCV RNA was synthesized through in vitro transcription. Huh 7.5.1 cells were individually electroporated with HCV RNA with resistant mutations and plated in a 12 well plate. After 4 hours, Huh7.5.1 cells were seeded in DMEM containing the compounds of examples serially diluted for 3 days. Three days later, the cells were harvested and the intracellular luciferase activity was measured. The luciferase activity was normalized with those obtained from the negative control cells (mock-treated cells).

Experiment [4] concerns HCV genotype 1b replicon with NS5A L31V mutation. The experiment is described as follows: Transiently transfected assay of genotype 1b resistance mutant RNA L31V. Conditions: Hepatitis C virus, Huh-7.5.1, 72 h, read-out: HCV Mutation L31V.
From the text: as §1, §2, §3

Experiment [5] relates to JFH5a-Rluc-ad34 virus (HCV GT-2a). Nature of the experiment: Anti-HCV activity using HCVcc (JFH5a-Rluc-ad34 virus) in Huh 7.5.1 cells, Renilla luciferase readout. Conditions: Hepatitis C virus, GT2A, Huh-7.5.1, 72 h, read-out: HCV wt. GT-2a. The method, then: <Experimental Example 1> Measurement of Anti-HCV Activity of Compounds of Examples Using HCVcc
Step 1: Cell Line and Cell Culture
Huh 7.5.1 cells were grown in Dulbecco's Modified Eagle's medium (DMEM; Gibco) supplemented with antibiotics (100 U/mL penicillin, 10 μg/mL streptomycin) and 10% heat-inactivated fetal bovine serum (ΔFBS; PEAK) in a CO2 incubator at 37° C. with […].
Huh7.5.1 cells were transfected with in vitro transcription RNA of JFH5a-Rluc-ad34, a derivative of JFH1 with adaptive mutations in E2 and p7 regions, by electroporation. JFH5a-Rluc-ad34 virus contains Renilla luciferase (Rluc), which is convenient for virus proliferation assay. The cell culture medium containing HCV was collected 3-5 days after the electroporation and then filtered through a […] pore size filter.
Step 3: Antiviral Activity Test Using Infectious HCV Particles
Huh 7.5.1 cells were inoculated with JFH5a-Rluc-ad34 virus and incubated for 4 hours. Four hours after the virus inoculation, the Huh7.5.1 cells infected with HCV were cultured in the medium containing the compound of examples serially diluted. Three days later, the cells were harvested and the intracellular luciferase activity was measured using Renilla luciferase assay system (Promega). Finally, the luciferase activity was normalized with those obtained from the negative control cells (mock-treated cells).

Experiment [6] deals with HCV genotype 1b replicon with NS5A Y93H mutation. The experiment is described as follows: Transiently transfected assay of genotype 1b resistance mutant RNA Y93H. The note with it: Hepatitis C virus, Huh-7.5.1, 72 h, read-out: HCV Mutation Y93H.
From the text: as §1, §2, §3

Consider `CCCCC1(CCCC)c2cc(NC(=O)[C@@H]3C[C@@H](OCCOC)CN3C(=O)[C@H](NC(=O)OC)c3ccccc3)ccc2-c2ccc(NC(=O)[C@@H]3C[C@@H](OCCOC)CN3C(=O)[C@H](NC(=O)OC)c3ccccc3)cc21` [Example 34, dimethyl (1R,1′R)-2,2′-((3R,3′R,5S,5′S)-5,5′-(9,9-dibutyl-9H-fluorene-2,7-diyl)bis(azanediyl)bis(oxomethylene)bis(3-(2-methoxyethoxy)pyrrolidine-5,1-diyl))bis(2-oxo-1-phenylethane-2,1-diyl)dicarbamate], for which the pEC50 in experiment [1] is 9.00 to 10.00; in experiment [2], 7.00 to 9.00; in experiment [3], 7.00 to 9.00; in experiment [4] it was 10.00 to 11.00; in experiment [5], 7.00 to 9.00; in experiment [6], 10.00 to 11.00.

In the case of `CCCCC1(CCCC)c2cc(NC(=O)[C@@H]3C[C@@H](O)CN3C(=O)[C@H](NC(=O)OC)c3ccccc3)ccc2-c2ccc(-c3cnc([C@@H]4CCCN4C(=O)[C@@H](NC(=O)OC)C(C)C)[nH]3)cc21` [Example 31, methyl((S)-1-((S)-2-(5-(9,9-dibutyl-7-((2S,4R)-4-hydroxy-1-((R)-2-((methoxycarbonyl)amino)-2-phenylacetyl)pyrrolidine-2-carboxyamido)-9H-fluorene-2-yl)-1H-imidazole-2-yl)pyrrolidine-1-yl)-3-methyl-1-oxobutane-2-yl)carbamate], the pEC50 in experiment [1] was 10.00 to 11.00; in experiment [2], 9.00 to 10.00; in experiment [3], 7.00 to 9.00; in experiment [4] it was 9.00 to 10.00; in experiment [5] it was 9.00 to 10.00; in experiment [6] it was 10.00 to 11.00.

With `CCCCC1(CCCC)c2cc(NC(=O)[C@@H]3C[C@H]4CCC[C@H]4N3C(=O)[C@H](NC(=O)OC)c3ccccc3)ccc2-c2ccc(NC(=O)[C@@H]3C[C@H]4CCC[C@H]4N3C(=O)[C@H](NC(=O)OC)c3ccccc3)cc21` [Example 22, dimethyl ((1R,1′R)-((2S,2′S,3aR,3a′R,6aR,6a′R)-(((9,9-dibutyl-9H-fluorene-2,7-diyl)bis(azanediyl))bis(carbonyl))bis(hexahydrocyclopenta[b]pyrrole-2,1(2H)-diyl))bis(2-oxo-1-phenylethane-2,1-diyl))dicarbamate], the pEC50 in experiment [1] is 11.00 to 12.00; in experiment [2] it was 10.00 to 11.00; in experiment [3], less than 7.00; in experiment [4], 11.00 to 12.00; in experiment [5], 7.00 to 9.00; in experiment [6], 10.00 to 11.00.

With `CCCCC1(CCCC)c2cc(NC(=O)[C@@H]3CC4(CC4)CN3C(=O)[C@H](NC(=O)OC)c3ccccc3)ccc2-c2ccc(NC(=O)[C@@H]3CC4(CC4)CN3C(=O)[C@H](NC(=O)OC)c3ccccc3)cc21` [Example 21, dimethyl ((1R,1′R)-((6S,6′S)-(((9,9-dibutyl-9H-fluorene-2,7-diyl)bis(azanediyl))bis(carbonyl))bis(5-azaspiro[2.4]heptane-6,5-diyl))bis(2-oxo-1-phenylethane-2,1-diyl))dicarbamate], the pEC50 is 11.00 to 12.00 in experiment [1]; 10.00 to 11.00 in experiment [2]; 7.00 to 9.00 in experiment [3]; 10.00 to 11.00 in experiment [4]; 9.00 to 10.00 in experiment [5]; 7.00 to 9.00 in experiment [6].

In the case of `CCCCC1(CCCC)c2cc(NC(=O)[C@@H]3CC4(CN3C(=O)[C@H](NC(=O)OC)c3ccccc3)OCCO4)ccc2-c2ccc(-c3cnc([C@@H]4CCCN4C(=O)[C@@H](NC(=O)OC)C(C)C)[nH]3)cc21` [Example 14, methyl ((S)-1-((S)-2-(5-(9,9-dibutyl-7-((S)-7-((R)-2-((methoxycarbonyl)amino)-2-phenylacetyl)-1,4-dioxa-7-azaspiro[4.4]nonane-8-carboxyamido)-9H-fluorene-2-yl)-1H-imidazole-2-yl)pyrrolidine-1-yl)-3-methyl-1-oxobutane-2-yl)carbamate], the pEC50 in experiment [1] was 11.00 to 12.00; in experiment [2] it was 10.00 to 11.00; in experiment [3], 7.00 to 9.00; in experiment [4], 11.00 to 12.00; in experiment [5], 10.00 to 11.00; in experiment [6], 11.00 to 12.00.

Regarding `CCCCC1(CCCC)c2cc(NC(=O)[C@@H]3CCCN3C(=O)[C@H](NC(=O)OC)c3ccccc3)ccc2-c2ccc(NC(=O)[C@@H]3CC4(CN3C(=O)[C@H](NC(=O)OC)c3ccccc3)OCCO4)cc21` [Example 16, methyl ((R)-2-((S)-8-((9,9-dibutyl-7-((S)-1-((R)-2-((methoxycarbonyl)amino)-2-phenylacetyl)pyrrolidine-2-carboxyamido)-9H-fluorene-2-yl)carbamoyl)-1,4-dioxa-7-azaspiro[4.4]nonane-7-yl)-2-oxo-1-phenylethyl)carbamate], the pEC50 in experiment [1] was 11.00 to 12.00; in experiment [2] it was 10.00 to 11.00; in experiment [3], 7.00 to 9.00; in experiment [4], 11.00 to 12.00; in experiment [5] it was 7.00 to 9.00; in experiment [6] it was 10.00 to 11.00.

For `CCCCC1(CCCC)c2cc(NC(=O)[C@@H]3CCCN3C(=O)[C@H](NC(=O)OC)c3ccccc3)ccc2-c2ccc(NC(=O)[C@@H]3C[C@H](COC)CN3C(=O)[C@H](NC(=O)OC)c3ccccc3)cc21` [Example 37, methyl ((R)-2-((2S,4S)-2-((9,9-dibutyl-7-((S)-1-((R)-2-((methoxycarbonyl)amino)-2-phenylacetyl)pyrrolidine-2-carboxyamido)-9H-fluorene-2-yl)carbamoyl)-4-(methoxymethyl)pyrrolidine-1-yl)-2-oxo-1-phenylethyl)carbamate], the pEC50 is 11.00 to 12.00 in experiment [1]; 11.00 to 12.00 in experiment [2]; 7.00 to 9.00 in experiment [3]; 11.00 to 12.00 in experiment [4]; 9.00 to 10.00 in experiment [5]; 10.00 to 11.00 in experiment [6].

Regarding `CCCCCC1(CCCCC)c2cc(NC(=O)[C@@H]3CCCN3C(=O)[C@H](NC(=O)OC)c3ccccc3)ccc2-c2ccc(NC(=O)[C@@H]3CC4(CN3C(=O)[C@H](NC(=O)OC)c3ccccc3)OCCO4)cc21` [Example 12, methyl ((R)-2-((S)-2-((7-((S)-7-((R)-2-((methoxycarbonyl)amino)-2-phenylacetyl)-1,4-dioxa-7-azaspiro[4.4]nonane-8-carboxamido)-9,9-dipentyl-9H-fluorene-2-yl)carbamoyl)pyrrolidine-1-yl)-2-oxo-1-phenylethyl)carbamate], the pEC50 in experiment [1] was 11.00 to 12.00; in experiment [2] it was 10.00 to 11.00; in experiment [3], 7.00 to 9.00; in experiment [4] it was 11.00 to 12.00; in experiment [5], 7.00 to 9.00; in experiment [6], 9.00 to 10.00.

Consider `CCCCCC1(CCCCC)c2cc(NC(=O)[C@@H]3CCCN3C(=O)[C@H](NC(=O)OC)c3ccccc3)ccc2-c2ccc(NC(=O)[C@@H]3CC(=O)CN3C(=O)[C@H](NC(=O)OC)c3ccccc3)cc21` [Example 19, methyl ((R)-2-((S)-2-((7-((S)-1-((R)-2-((methoxycarbonyl)amino)-2-phenylacetyl)pyrrolidine-2-carboxyamido)-9,9-dipentyl-9H-fluorene-2-yl)carbamoyl)-4-oxopyrrolidine-1-yl)-2-oxo-1-phenylethyl)carbamate], for which the pEC50 was 10.00 to 11.00 in experiment [1]; 7.00 to 9.00 in experiment [2]; 7.00 to 9.00 in experiment [3]; 10.00 to 11.00 in experiment [4]; 7.00 to 9.00 in experiment [5]; 9.00 to 10.00 in experiment [6].

Turning to `CCCCC1(CCCC)c2cc(NC(=O)[C@@H]3CC4(CN3C(=O)[C@H](NC(=O)OC)c3ccccc3)OCCO4)ccc2-c2ccc(NC(=O)[C@@H]3CC4(CN3C(=O)[C@H](NC(=O)OC)c3ccccc3)OCCO4)cc21` [Example 15, dimethyl ((1R,1′R)-((8S,8′S)-(((9,9-dibutyl-9H-fluorene-2,7-diyl)bis(azanediyl))bis(carbonyl))bis(1,4-dioxa-7-azaspiro[4.4]nonane-8,7-diyl))bis(2-oxo-1-phenylethane-2,1-diyl))dicarbamate], the pEC50 was 11.00 to 12.00 in experiment [1]; 9.00 to 10.00 in experiment [2]; 10.00 to 11.00 in experiment [3]; 11.00 to 12.00 in experiment [4]; 7.00 to 9.00 in experiment [5]; 10.00 to 11.00 in experiment [6].
